What follows are compounds tested on apyrase (assay: Screen for apyrase inhibitors (Method 1, in vitro phosphate-release absorbance assay)). Conditions: inhibitor conc at 1 mM stock, 1 hr room temperature, absorbance 630 nm; rounded average of two assay results.
Assay type: biochemical
Summary of the method: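 Phosphate-release colorimetric assay (Windsor method) in 60 mM Hepes, 3 mM MgCl2, 3 mM CaCl2, 3 mM ATP, pH 6.5, with compound or DMSO control added. Released phosphate developed with ammonium molybdate and ascorbic acid/TCA, then stopped with citrate/acetic acid.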

Row | Compound | % Inhibition of Apyrase
1 | Cc1cc(C(=O)Nc2cccc(S(=O)(=O)N(C)c3ccccc3)c2)on1 [I-748, 3-methyl-N-(3-(N-methyl-N-phenylsulfamoyl)phenyl)isoxazole-5-carboxamide] | 42%
2 | COc1ccc(NS(=O)(=O)c2cccc(NC(=O)c3ccc(Cl)s3)c2)cc1 [I-749, 5-chloro-N-(3-(N-(4-methoxyphenyl)sulfamoyl)phenyl)thiophene-2-carboxamide] | 41%
3 | Cn1nc(C(=O)Nc2cccc(S(=O)(=O)Nc3cccc(C(F)(F)F)c3)c2)c2ccccc2c1=O [I-750, 3-methyl-4-oxo-N-(3-(N-(3-(trifluoromethyl)phenyl)sulfamoyl)phenyl)-3,4-dihydrophthalazine-1-carboxamide] | 41%
4 | CCOc1ccc(NS(=O)(=O)c2cccc(NC(=O)c3cccnc3)c2)cc1Br [I-751, N-(3-(N-(3-bromo-4-ethoxyphenyl)sulfamoyl)phenyl)nicotinamide] | 41%
5 | O=C(Nc1cccc(S(=O)(=O)Nc2ccccc2Cl)c1)c1cnccn1 [I-752, N-(3-(N-(2-chlorophenyl)sulfamoyl)phenyl)pyrazine-2-carboxamide] | 40%
6 | COc1cc(C(=O)Nc2cccc(S(=O)(=O)N(C)c3ccccc3)c2)ncn1 [I-753, 6-methoxy-N-(3-(N-methyl-N-phenylsulfamoyl)phenyl)pyrimidine-4-carboxamide] | 37%
7 | CN(c1ccccc1)S(=O)(=O)c1cccc(NC(=O)c2ccc3ccccc3n2)c1 [I-754, N-(3-(N-methyl-N-phenylsulfamoyl)phenyl)quinoline-2-carboxamide] | 36%
8 | CN(c1ccccc1)S(=O)(=O)c1cccc(NC(=O)c2ccc(=O)[nH]n2)c1 [I-755, N-(3-(N-methyl-N-phenylsulfamoyl)phenyl)-6-oxo-1,6-dihydropyridazine-3-carboxamide] | 33%
9 | O=C(Nc1cccc(S(=O)(=O)Nc2ccccc2Cl)c1)c1cnc(Cl)c(Cl)c1 [I-756, 5,6-dichloro-N-(3-(N-(2-chlorophenyl)sulfamoyl)phenyl)nicotinamide] | 30%
10 | CCOc1ncccc1C(=O)Nc1cccc(S(=O)(=O)Nc2ccccc2OC)c1 [I-757, 2-ethoxy-N-(3-(N-(2-methoxyphenyl)sulfamoyl)phenyl) nicotinamide] | 29%
11 | O=C(Nc1cccc(S(=O)(=O)Nc2cccc(C(F)(F)F)c2)c1)c1cccnc1 [I-758, N-(3-(N-(3-(trifluoromethyl)phenyl)sulfamoyl)phenyl) nicotinamide] | 28%
12 | O=C(Nc1cccc(S(=O)(=O)Nc2cccc(C(F)(F)F)c2)c1)c1ccco1 [I-759, N-(3-(N-(3-(trifluoromethyl)phenyl)sulfamoyl)phenyl) furan-2-carboxamide] | 28%
13 | COc1ccc(C(=O)Nc2cccc(S(=O)(=O)Nc3nccs3)c2)cc1[N+](=O)[O-] [I-760, 4-methoxy-3-nitro-N-(3-(N-(thiazol-2-yl)sulfamoyl)phenyl)benzamide] | 26%
14 | COc1ccccc1NS(=O)(=O)c1cccc(NC(=O)c2ccc(C)s2)c1 [I-761, N-(3-(N-(2-methoxyphenyl)sulfamoyl)phenyl)-5-methylthiophene-2-carboxamide] | 17%
15 | O=C(Nc1cccc(S(=O)(=O)Nc2cccc(C(F)(F)F)c2)c1)c1ccoc1 [I-762, N-(3-(N-(3-(trifluoromethyl)phenyl)sulfamoyl)phenyl) furan-3-carboxamide] | 16%
16 | CN(c1ccccc1)S(=O)(=O)c1cccc(NC(=O)c2nn(C)c(=O)c3ccccc23)c1 [I-763, 3-methyl-N-(3-(N-methyl-N-phenylsulfamoyl)phenyl)-4-oxo-3,4-dihydrophthalazine-1-carboxamide] | 15%
17 | O=C(Nc1cccc(S(=O)(=O)Nc2ccc(Cl)cc2)c1)c1ccc(Cl)nc1 [I-764, 6-chloro-N-(3-(N-(4-chlorophenyl)sulfamoyl)phenyl)nicotinamide] | 15%
18 | CCOc1ccc(NS(=O)(=O)c2cccc(NC(=O)c3ccncc3)c2)cc1Br [I-765, N-(3-(N-(3-bromo-4-ethoxyphenyl)sulfamoyl)phenyl) isonicotinamide] | 15%
19 | COc1ccccc1NS(=O)(=O)c1cccc(NC(=O)c2cncc(Br)c2)c1 [I-766, 5-bromo-N-(3-(N-(2-methoxyphenyl)sulfamoyl)phenyl) nicotinamide] | 14%
20 | Cc1cnc(C(=O)Nc2cccc(S(=O)(=O)N(C)c3ccccc3)c2)cn1 [I-767, 5-methyl-N-(3-(N-methyl-N-phenylsulfamoyl)phenyl)pyrazine-2-carboxamide] | 12%
21 | CN(c1ccccc1)S(=O)(=O)c1cccc(NC(=O)c2ccncc2)c1 [I-768, N-(3-(N-methyl-N-phenylsulfamoyl)phenyl)isonicotinamide] | 7%
22 | Cc1cnc(C(=O)Nc2cccc(S(=O)(=O)Nc3cccc(C(F)(F)F)c3)c2)cn1 [I-769, 5-methyl-N-(3-(N-(3-(trifluoromethyl)phenyl)sulfamoyl)phenyl) pyrazine-2-carboxamide] | 7%

Row | Compound | % Inhibition of Apyrase
23 | COc1ccccc1NS(=O)(=O)c1cccc(NC(=O)c2cccnc2OC)c1 [I-770, 2-methoxy-N-(3-(N-(2-methoxyphenyl)sulfamoyl)phenyl) nicotinamide] | 6%
24 | COc1ccc(NS(=O)(=O)c2cccc(NC(=O)c3cccs3)c2)cc1 [I-771, N-(3-(N-(4-methoxyphenyl)sulfamoyl)phenyl)thiophene-2-carboxamide] | 6%
25 | O=C(Nc1cccc(S(=O)(=O)Nc2ccc(SC(F)F)cc2)c1)c1ccco1 [I-772, N-(3-(N-(4-((difluoromethyl)thio)phenyl)sulfamoyl)phenyl) furan-2-carboxamide] | 6%
26 | CN(c1ccccc1)S(=O)(=O)c1cccc(NC(=O)c2cc(C3CC3)on2)c1 [I-773, 5-cyclopropyl-N-(3-(N-methyl-N-phenylsulfamoyl)phenyl)isoxazole-3-carboxamide] | 3%
27 | COc1ccccc1NS(=O)(=O)c1cccc(NC(=O)c2ccc(=O)n(C)n2)c1 [I-774, N-(3-(N-(2-methoxyphenyl)sulfamoyl)phenyl)-1-methyl-6-oxo-1,6-dihydropyridazine-3-carboxamide] | 3%
28 | O=C(Nc1cccc(S(=O)(=O)Nc2ccc(Cl)cc2)c1)c1cnccn1 [I-775, N-(3-(N-(4-chlorophenyl)sulfamoyl)phenyl)pyrazine-2-carboxamide] | 3%
29 | O=C(Nc1cccc(S(=O)(=O)Nc2ccccc2F)c1)c1cccs1 [I-776, N-(3-(N-(2-fluorophenyl)sulfamoyl)phenyl)thiophene-2-carboxamide] | 1%
30 | CN(c1ccccc1)S(=O)(=O)c1ccccc1C(=O)Nc1ccc(Cl)cc1F [I-808, N-(4-chloro-2-fluorophenyl)-2-(N-methyl-N-phenylsulfamoyl)benzamide] | 80%
31 | CN(c1ccccc1)S(=O)(=O)c1ccccc1C(=O)Nc1ccc2c(c1)OCO2 [I-809, N-(benzo[d][1,3]dioxol-5-yl)-2-(N-methyl-N-phenylsulfamoyl)benzamide] | 77%
32 | CN(c1ccccc1)S(=O)(=O)c1ccccc1C(=O)N1CCCc2ccccc21 [I-810, N-methyl-N-phenyl-2-(1,2,3,4-tetrahydroquinoline-1-carbonyl)benzenesulfonamide] | 75%
33 | CN(c1ccccc1)S(=O)(=O)c1ccccc1C(=O)Nc1ccc(C#N)cc1 [I-811, N-(4-cyanophenyl)-2-(N-methyl-N-phenylsulfamoyl)benzamide] | 74%
34 | O=C1Cc2cccc(NS(=O)(=O)c3ccc(Br)cc3)c2N1 [I-812, 4-bromo-N-(2-oxoindolin-7-yl)benzenesulfonamide] | 54%
35 | O=C(Nc1cc(Cl)ccc1NS(=O)(=O)c1ccccc1F)c1ccc2c(c1)OCO2 [I-813, N-(5-chloro-2-((2-fluorophenyl)sulfonamido)phenyl)benzo[d][1,3] dioxole-5-carboxamide] | 44%
36 | CN(c1ccccc1)S(=O)(=O)c1ccccc1C(=O)Nc1cccc(C(N)=O)c1 [I-814, N-(3-carbamoylphenyl)-2-(N-methyl-N-phenylsulfamoyl)benzamide] | 39%
37 | CN(C(=O)c1ccccc1S(=O)(=O)N(C)c1ccccc1)c1ccccc1 [I-815, N-methyl-2-(N-methyl-N-phenylsulfamoyl)-N-phenylbenzamide] | 37%
38 | CN(c1ccccc1)S(=O)(=O)c1ccccc1C(=O)Nc1ccc(C(N)=O)cc1 [I-816, N-(4-carbamoylphenyl)-2-(N-methyl-N-phenylsulfamoyl)benzamide] | 29%
39 | Cc1ccc(C(=O)Nc2ccccc2S(=O)(=O)Nc2ccccc2)cc1F [I-817, 3-fluoro-4-methyl-N-(2-(N-phenylsulfamoyl)phenyl)benzamide] | 64%
40 | COc1ccc(NS(=O)(=O)c2cc(C)ccc2NC(=O)c2cc(C)oc2C)cc1 [I-818, N-(2-(N-(4-methoxyphenyl)sulfamoyl)-4-methylphenyl)-2,5-dimethylfuran-3-carboxamide] | 60%
41 | CCOc1ccc(NS(=O)(=O)c2c(C)cccc2NC(=O)c2ccccc2OC)cc1 [I-820, N-(2-(N-(4-ethoxyphenyl)sulfamoyl)-3-methylphenyl)-2-methoxybenzamide] | 57%
42 | CCOc1ccc(NS(=O)(=O)c2c(C)cccc2NC(=O)c2ccc(Cl)cc2)cc1 [I-821, 4-chloro-N-(2-(N-(4-ethoxyphenyl)sulfamoyl)-3-methylphenyl)benzamide] | 56%
43 | COc1ccc(NC(=O)c2cccc(S(=O)(=O)N3CC(C)CC(C)C3)c2)c(S(=O)(=O)Nc2ccccc2Cl)c1 (stereo not shown) [I-822, N-(2-(N-(2-chlorophenyl)sulfamoyl)-4-methoxyphenyl)-3-((3,5-dimethylpiperidin-1-yl)sulfonyl)benzamide] | 54%

Reference: patent publication US12685312B2, “Sulfonamide apyrase inhibitors” (Texas Crop Science, Inc., priority 2022, dated 2026)
